Active and inactive are the calls of the source. The rule behind the calls is not given here. Where a SMILES comes first, the peptide text is derived from it.
What was measured:
Escherichia coli [1] = experiment: Inhibition of Escherichia coli DNA gyrase supercoiling activity using relaxed pBR322 DNA after 1 hr by gel electrophoresis assay
Escherichia coli [2] = experiment: Inhibition of Escherichia coli topoisomerase-4-mediated DNA cleavage assessed as relaxation of supercoiled pBR322 after 1 hr by gel electrophoresis assay
[3] = target: DNA topoisomerase 2-alpha (Homo sapiens) (UniProt P11388); experiment: Inhibition of human topoisomerase 2-mediated DNA cleavage assessed as relaxation of supercoiled pBR322 after 1 hr by gel electrophoresis assay
DNA topoisomerase 2-alpha (Homo sapiens), sequence (P11388 whole entry): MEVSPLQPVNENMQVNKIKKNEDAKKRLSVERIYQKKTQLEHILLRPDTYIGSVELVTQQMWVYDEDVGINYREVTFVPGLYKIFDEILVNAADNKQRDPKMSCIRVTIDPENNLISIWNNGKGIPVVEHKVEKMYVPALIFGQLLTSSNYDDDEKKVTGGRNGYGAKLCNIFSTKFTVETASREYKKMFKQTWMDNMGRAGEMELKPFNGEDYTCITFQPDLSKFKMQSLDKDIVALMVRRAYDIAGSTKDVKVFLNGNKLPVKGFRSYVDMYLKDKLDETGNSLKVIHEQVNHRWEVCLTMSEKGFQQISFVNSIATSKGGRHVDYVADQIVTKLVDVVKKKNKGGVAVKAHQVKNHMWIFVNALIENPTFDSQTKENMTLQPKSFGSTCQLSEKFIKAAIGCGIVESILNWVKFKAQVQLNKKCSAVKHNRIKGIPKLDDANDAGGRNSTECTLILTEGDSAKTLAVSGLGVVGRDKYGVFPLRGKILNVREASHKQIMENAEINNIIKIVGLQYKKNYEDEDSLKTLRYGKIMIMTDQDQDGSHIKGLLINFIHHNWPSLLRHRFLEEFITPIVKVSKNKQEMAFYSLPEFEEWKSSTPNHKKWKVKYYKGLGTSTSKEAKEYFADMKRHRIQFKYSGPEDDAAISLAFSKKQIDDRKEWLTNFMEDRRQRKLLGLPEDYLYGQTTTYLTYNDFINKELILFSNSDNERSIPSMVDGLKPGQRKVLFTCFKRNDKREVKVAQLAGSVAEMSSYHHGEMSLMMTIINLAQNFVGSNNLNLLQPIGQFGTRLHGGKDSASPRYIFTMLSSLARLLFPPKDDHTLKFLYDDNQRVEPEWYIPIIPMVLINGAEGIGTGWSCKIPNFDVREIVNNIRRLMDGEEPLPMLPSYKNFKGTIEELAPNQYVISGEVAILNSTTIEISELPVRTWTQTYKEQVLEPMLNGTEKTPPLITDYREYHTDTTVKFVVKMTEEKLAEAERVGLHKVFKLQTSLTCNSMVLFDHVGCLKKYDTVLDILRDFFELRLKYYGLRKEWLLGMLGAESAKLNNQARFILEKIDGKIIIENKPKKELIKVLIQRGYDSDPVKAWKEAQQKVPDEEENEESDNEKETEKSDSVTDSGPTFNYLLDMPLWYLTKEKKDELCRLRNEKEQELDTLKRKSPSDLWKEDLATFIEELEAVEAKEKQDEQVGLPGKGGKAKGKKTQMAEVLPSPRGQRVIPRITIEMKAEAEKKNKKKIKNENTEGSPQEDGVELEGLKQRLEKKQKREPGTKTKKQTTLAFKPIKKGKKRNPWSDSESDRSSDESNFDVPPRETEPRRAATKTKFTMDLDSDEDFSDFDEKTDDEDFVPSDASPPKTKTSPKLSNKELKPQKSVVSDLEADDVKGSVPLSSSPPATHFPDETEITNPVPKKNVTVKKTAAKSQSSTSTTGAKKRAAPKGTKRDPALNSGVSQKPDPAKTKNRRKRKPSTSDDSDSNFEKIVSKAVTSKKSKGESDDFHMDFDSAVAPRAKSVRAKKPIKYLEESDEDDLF

Escherichia coli [4] = experiment: Inhibition of Escherichia coli topoisomerase-4-mediated DNA cleavage assessed as relaxation of supercoiled pBR322 at <75 umol/L after 1 hr by gel electrophoresis assay
Escherichia coli [5] = experiment: Inhibition of Escherichia coli DNA gyrase supercoiling activity using relaxed pBR322 DNA at 20 umol/L after 1 hr by gel electrophoresis assay

| Molecule | IC100 (Escherichia coli [1]) [µmol/L] | IC100 (Escherichia coli [2]) [µmol/L] | IC100 [3] [µmol/L] | inhibition [3] | inhibition (Escherichia coli [4]) | inhibition (Escherichia coli [5]) [%] |
| --- | --- | --- | --- | --- | --- | --- |
| CC[C@H](C)[C@H](NC(=O)[C@H](CCSC)NC(=O)[C@H](CCCNC(=N)N)NC(=O)[C@@H](N)CC(C)C)C(=O)N[C@@H](Cc1cnc[nH]1)C(=O)N[C@@H](CS)C(=O)N[C@@H](CCC(=O)O)C(=O)N[C@@H](Cc1cnc[nH]1)C(=O)N[C@@H](Cc1cnc[nH]1)C(=O)N[C@@H](Cc1ccc(O)cc1)C(=O)N[C@H](C(=O)N[C@@H](Cc1ccccc1)C(=O)N[C@@H](CS)C(=O)N[C@@H](CC(C)C)C(=O)N1CCC[C@H]1C(=O)N[C@@H](Cc1cnc[nH]1)C(=O)NCC(=O)N[C@@H](CO)C(=O)N[C@@H](C)C(=O)O)C(C)C (H-LRMIHCEHHYVFCLPHGSA-OH) | 50 | 25 | 50 |  |  |  |
| CC[C@H](C)[C@H](NC(=O)[C@H](C)NC(=O)[C@@H](NC(=O)[C@@H](NC(=O)[C@H](CC(C)C)NC(=O)[C@H](C)NC(=O)[C@@H]1CCCN1C(=O)[C@H](C)NC(=O)[C@H](CO)NC(=O)CNC(=O)[C@H](Cc1cnc[nH]1)NC(=O)[C@@H]1CCCN1C(=O)[C@H](CC(C)C)NC(=O)[C@H](CS)NC(=O)[C@H](Cc1ccccc1)NC(=O)[C@@H](NC(=O)[C@H](Cc1ccc(O)cc1)NC(=O)[C@H](Cc1cnc[nH]1)NC(=O)[C@H](Cc1cnc[nH]1)NC(=O)[C@H](CCC(=O)O)NC(=O)[C@H](CS)NC(=O)[C@H](Cc1cnc[nH]1)NC(=O)[C@@H](NC(=O)[C@H](CCSC)NC(=O)[C@H](CCCNC(=N)N)NC(=O)[C@@H](N)CC(C)C)[C@@H](C)CC)C(C)C)C(C)C)C(C)C)C(=O)N[C@@H](Cc1ccccc1)C(=O)O (H-LRMIHCEHHYVFCLPHGSAPALVVAIF-OH) |  |  |  | inactive |  |  |
| H-HYVFCLPHGSAPALVVAIFHERMDLMARLSERLNIES-OH |  |  |  |  | inactive |  |
| H-PALVVAIFHERMDLMARLSER-OH | > 20 | 10 |  | inactive |  | 93 |
